# Laboratory results published in patent EP0012271A1, “Prednisone derivatives, process for their production and pharmaceutical preparations containing these compounds” (SCHERING AKTIENGESELLSCHAFT, priority 1978, dated 1980).
# Legend:
# Pfotenödems = assay: Undesired systemic activity: Mycobacterium butyricum-induced paw oedema in rats, oral administration; type: in vivo, SPF-Ratten; conditions: Rattus norvegicus, dose giving 50% reduction of paw oedema volume, measured 24 h after dosing, higher value = less undesired systemic effect, read-out: Systemische Wirksamkeit ED50
# Excerpt: (§1) Die Prednison-Derivate der allgemeinen Formel I gemäß Anspruch 1 zeichnen sich gegenüber dem in handelsüblichen pharmazeutischen Präparate befindlichen, strukturanalogen Kortikoid 17α-Butyryloxy-21-chlor-9α-fluor-16β-methyl- l,4-pregnadien-3,11,20-trion durch eine günstigere Dissoziation zwischen erwünschter topischer antiinflammatorischer Wirksamkeit und unerwünschter systemischer Nebenwirkung aus, wie folgende pharmakologische Untersuchungen zeigen: • a) Ermittlung der topischen antiinflammatorischen Wirksamkeit: Die Untersuchungen werden an je 8 gesunden Probanden beider Geschlechter durchgeführt, die in den letzten zwei Wochen keine lokale Corticosteroidbehandlung erhalten hatten. Nach dem Entfernen des Stratum corneum bis zum Stratum lucidum auf dem Rücken der Probanden (20 - 40 Tesafilm-Abrisse) werden je o,l g der Zubereitung auf 4 cm^2 große Felder ohne Okklusionsverband aufgetragen. Um zu vermeiden, daß die gleiche Zubereitung jeweils auf identische Hautreale appliziert wird, wird in rotierender Folge aufgetragen. […]
# Vasokonstriktion = assay: Topical anti-inflammatory activity: vasoconstriction test on tape-stripped back skin of healthy volunteers, visual grading 1-5 compared with DFV; type: in vivo, gesunden Probanden; conditions: Konz. der Salbe, mean of 8 volunteers, positive = better than DFV, negative = worse
# Excerpt: as §1
compound,measurement,setting,value
"CCCC(=O)O[C@]1(C(=O)CCl)CC[C@H]2[C@@H]3CCC4=CC(=O)C=C[C@]4(C)[C@@]3(F)C(=O)C[C@@]21C [Nr. 3, 17α-Butyryloxy-21-chlor-9α-fluor-1,4-pregnadien-3,11,20-trion]",ED50,Pfotenödems,30 mg/kg
same,"Topische Wirksamkeit, Wirkungsgrad DFV - Wirkungsgrad Substanz",Vasokonstriktion; Beobachtungszeit 4 h,"-0,1"
same,"Topische Wirksamkeit, Wirkungsgrad DFV - Wirkungsgrad Substanz",Vasokonstriktion; Beobachtungszeit 8 h,"0,0"
